Test results: patent US20060269480A1, “Multi-triggered self-immolative dendritic compounds” (Ramot At Tel Aviv University Ltd., priority 2005, published 2006)

Key:
MOLT-3 cells [1] = test: Apoptosis by annexin V/7-AAD flow cytometry; type: cell-based, human; conditions: 25 nM drug or prodrug, 1 μM 38C2 or PGA where stated
Method: (§1) Cell lines: Human T-lineage acute lymphoblastic leukemia (ALL) cell line MOLT-3, and human erythroleukemia cell line HEL were purchased from American Type Culture Collection (ATCC, Rockville, Md.) and maintained in RPMI 1640 medium (Hyclone, Logan, Utah) supplemented with 10% FCS, 1.5 gram/liter sodium bicarbonate, 10 mM HEPES, 1 mM sodium pyruvate, and antibiotics (Gibco, Grand Island, N.Y.).
Assessment of apoptosis: Cells were stained with Phycoerythrin (PE)-conjugated annexin V and 7-AAD using the annexin V kit (BD PharMingen, San Diego, Calif.) according to the manufacture's protocol. In brief, cells were collected at different time points, washed once with EDTA-free PBS, and then incubated for 15 minutes with a mixture containing annexin V-PE and 7-AAD in binding buffer (10 mM HEPES (pH 7.4), 140 mM NaCl, and 2.5 mM CaCl2). Thereafter, the supernatants were removed, and 400 μl of binding buffer was added to each sample. The fluorescence was analyzed by flow cytometry (FACScan, Becton Dickinson, San Jose, Calif.) for the presence of viable (AV^− and 7-AAD^−), early apoptotic (AV^+, 7-AAD^−), and late apoptotic/secondary necrotic (AV^+ and 7-AAD^+) cells.
MOLT-3cells were incubated in the presence of Compound 16 and PGA or Ab38C2, as described in the Methods section hereinabove, for various time periods. […]

HEL cells = test: Cell growth inhibition, [3H]thymidine proliferation assay; type: cell-based; conditions: Homo sapiens, read-out: IC50, HEL cells, 72 hours incubation, 38C2 or PGA at 1 μM where stated, read-out: IC50, Hell cells
Method: as §1
(§2) Cytotoxicity assays: Stock solutions of 2 mM doxorubicin (Dox) and dual-triggered prodrug (pro-Dox, Compound 16) in dimethylformamide were stored at 4° C. For cell-growth inhibition assays, 100 μM solutions of the drug or prodrug in PBS were freshly prepared from the 2 mM stock solutions.
(§3) Cells were harvested from culture dishes, washed once with HBSS, re-suspended in cell culture medium, and plated in 96-well tissue culture plate at a density of 5×10^3/well in 100 μl media. Drugs were further diluted in cell culture medium to yield final concentration of 50 pM-1 μM and added to the cells. […] The cells were frozen at −80° C. overnight and subsequently processed on a multichannel automated cell harvester (Cambridge Technology, Cambridge, Mass.) and counted in a liquid scintillation beta counter (Beckman Coulter). […] The inhibition in experiment E was calculated according to the following formula: (background−E)/background×100%. […]

MOLT-3 cells [2] = test: as above; type: cell-based; conditions: Homo sapiens, 72 hours incubation, 38C2 or PGA at 1 μM where stated
Method: as §1, §2, §3

IC50 (MOLT-3 cells [2]): 3 nM
Structure (SMILES): COc1cccc2c1C(=O)c1c(O)c3c(c(O)c1C2=O)C[C@@](O)(C(=O)CO)C[C@@H]3O[C@H]1C[C@H](N)[C@H](O)[C@H](C)O1 [Dox, doxorubicin]
incubation time after which the majority of cells were in early or late apoptotic state (MOLT-3 cells [1]): 24 h
induction of apoptosis (MOLT-3 cells [1]; up to 72 hours): undergo apoptosis
IC50 (HEL cells): 20 nM
